# Reference: patent US20230242494A1, “MALONITRILE DERIVATIVES” (Hoffmann-La Roche Inc., priority 2020, published 2023)
# Target: T1, human cGAS (residues 161-522) (Homo sapiens, UniProt Q8N884)
# T1 construct: human cGAS (residues 161-522); made in house
# Experiment: cGAS Activity Assay—Malachite Green
# Format: biochemical
# Settings: recombinant purified human cGAS 25 nM; 80 μM ATP, 80 μM GTP, 100 nM ISD; 4 hour at RT; phosphate detection by Malachite Green
# Summary of the method: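 Human cGAS (161-522, 25 nM) in 20 mM TRIS pH 7.5, 5 mM MgCl2, 0.01% BSA with 80 μM ATP, 80 μM GTP and 100 nM ISD DNA, 4 h at RT. Pyrophosphate converted by PPase, phosphate read with Malachite Green at 620 nm; IC50 from 4-parameter fit of 16-point series.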
# T1 sequence (Q8N884 161-522): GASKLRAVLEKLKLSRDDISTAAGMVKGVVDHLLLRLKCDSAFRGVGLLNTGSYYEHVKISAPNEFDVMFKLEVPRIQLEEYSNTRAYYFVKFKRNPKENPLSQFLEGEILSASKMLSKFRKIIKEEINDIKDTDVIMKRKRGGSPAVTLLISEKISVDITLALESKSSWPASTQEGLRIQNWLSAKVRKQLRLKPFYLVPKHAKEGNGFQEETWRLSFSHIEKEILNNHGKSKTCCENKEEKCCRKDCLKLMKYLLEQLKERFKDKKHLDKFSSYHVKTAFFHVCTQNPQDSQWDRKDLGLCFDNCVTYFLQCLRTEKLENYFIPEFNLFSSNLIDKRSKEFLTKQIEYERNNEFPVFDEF
row,Structure (SMILES),IC50
1,"COc1ccc(NC(=O)/C(C#N)=C(\O)c2cnoc2C)nc1 [Example 37, (Z)-2-cyano-3-hydroxy-N-(5-methoxy-2-pyridyl)-3-(5-methylisoxazol-4-yl)prop-2-enamide]",420 nM
2,"CCOc1ccc(NC(=O)/C(C#N)=C(\O)c2cnoc2C)cc1 [Example 28, (Z)-2-cyano-N-(4-ethoxyphenyl)-3-hydroxy-3-(5-methylisoxazol-4-yl)prop-2-enamide]",750 nM
3,"Cc1oncc1/C(O)=C(\C#N)C(=O)Nc1ccc(C(F)(F)F)cc1 [Example 4, (Z)-2-cyano-3-hydroxy-3-(5-methylisoxazol-4-yl)-N-(4-(trifluoromethyl)phenyl) acrylamide]",950 nM
4,"Cc1oncc1/C(O)=C(\C#N)C(=O)Nc1ccc([S+](C)[O-])cc1 (stereo not shown) [Example 116, (Z)-2-cyano-3-hydroxy-3-(5-methylisoxazol-4-yl)-N-(4-methylsulfinylphenyl) prop-2-enamide]",380 nM
5,"Cc1oncc1/C(O)=C(\C#N)C(=O)Nc1ncc(C2CCCCC2)cn1 [Example 79, (Z)-2-cyano-N-(5-cyclohexylpyrimidin-2-yl)-3-hydroxy-3-(5-methylisoxazol-4-yl)acrylamide]",190 nM
6,"Cc1oncc1/C(O)=C(\C#N)C(=O)Nc1ccc(Sc2ccccc2)cc1 [Example 55, (Z)-2-cyano-3-hydroxy-3-(5-methylisoxazol-4-yl)-N-(4-(phenylthio)phenyl) acrylamide]",2020 nM
7,"Cc1oncc1/C(O)=C(\C#N)C(=O)Nc1ccc(C(=O)N[C@H]2CCN(Cc3ccccc3)C2)cc1 [Example 70, (S,Z)-N-(1-benzylpyrrolidin-3-yl)-4-(2-cyano-3-hydroxy-3-(5-methylisoxazol-4-yl)acrylamido)benzamide]",1000 nM
8,"Cc1oncc1/C(O)=C(\C#N)C(=O)Nc1ccc(Sc2ccc(Cl)cc2)cc1 [Example 13, (Z)-N-(4-((4-chlorophenyl)thio)phenyl)-2-cyano-3-hydroxy-3-(5-methylisoxazol-4-yl)acrylamide]",3470 nM
9,"Cc1oncc1/C(O)=C(\C#N)C(=O)Nc1ccc(S(=O)(=O)c2cccnc2)cc1 [Example 123, (Z)-2-cyano-3-hydroxy-3-(5-methylisoxazol-4-yl)-N-(4-(pyridin-3-ylsulfonyl)phenyl) acrylamide]",210 nM
10,"Cc1oncc1/C(O)=C(\C#N)C(=O)Nc1ncc(S(C)(=O)=O)c(-c2cccc(F)c2)n1 [Example 137, (Z)-2-cyano-N-(4-(3-fluorophenyl)-5-(methylsulfonyl)pyrimidin-2-yl)-3-hydroxy-3-(5-methylisoxazol-4-yl)acrylamide]",60 nM
11,"COC(=O)c1ccc(NC(=O)/C(C#N)=C(\O)c2cnoc2C)cc1 [Example 8, methyl (Z)-4-(2-cyano-3-hydroxy-3-(5-methylisoxazol-4-yl)acrylamido)benzoate]",340 nM
12,"Cc1oncc1/C(O)=C(\C#N)C(=O)Nc1ccc(S(=O)(=O)c2ccc(Cl)cc2)cc1 [Example 16, (Z)-N-(4-((4-chlorophenyl)sulfonyl)phenyl)-2-cyano-3-hydroxy-3-(5-methylisoxazol-4-yl)acrylamide]",270 nM
13,"COC(=O)c1cccc(NC(=O)/C(C#N)=C(\O)c2cnoc2C)c1 [Example 25, methyl 3-[[(Z)-2-cyano-3-hydroxy-3-(5-methylisoxazol-4-yl)prop-2-enoyl]amino]benzoate]",1520 nM
14,Cc1noc(C)c1N(C(=O)c1cnoc1C)S(=O)(=O)c1ccc(NC(=O)/C(C#N)=C(\O)c2cnoc2C)cc1 [Example 60],520 nM
15,"Cc1oncc1/C(O)=C(\C#N)C(=O)Nc1ncc(OCC2CC2)c(-c2ccc(Cl)cc2)n1 [Example 125, (Z)-N-(4-(4-chlorophenyl)-5-(cyclopropylmethoxy)pyrimidin-2-yl)-2-cyano-3-hydroxy-3-(5-methylisoxazol-4-yl)acrylamide]",2910 nM
16,"Cc1oncc1/C(O)=C(\C#N)C(=O)Nc1ccc(F)cc1 [Example 10, (Z)-2-cyano-N-(4-fluorophenyl)-3-hydroxy-3-(5-methylisoxazol-4-yl)acrylamide]",1480 nM
17,"Cc1oncc1/C(O)=C(\C#N)C(=O)Nc1ccc(S(C)(=N)=O)cc1 (stereo not shown) [Example 113, (Z)-2-Cyano-3-hydroxy-3-(5-methylisoxazol-4-yl)-N-(4-(S-methylsulfonimidoyl)phenyl)acrylamide]",330 nM
18,"Cc1oncc1/C(O)=C(\C#N)C(=O)Nc1ccc(S(=O)(=O)Cc2ccccc2Cl)cn1 [Example 109, (Z)—N-(5-((2-chlorobenzyl)sulfonyl)pyridin-2-yl)-2-cyano-3-hydroxy-3-(5-methylisoxazol-4-yl)acrylamide]",720 nM
19,"Cc1oncc1/C(O)=C(\C#N)C(=O)Nc1ccc(S(=O)(=O)c2ccccc2)cc1 [Example 30, (Z)-2-cyano-3-hydroxy-3-(5-methylisoxazol-4-yl)-N-(4-(phenylsulfonyl)phenyl) acrylamide]",160 nM
20,"Cc1oncc1/C(O)=C(\C#N)C(=O)Nc1ccc(C(F)(F)F)cc1Cl [Example 56, (Z)-N-(2-chloro-4-(trifluoromethyl)phenyl)-2-cyano-3-hydroxy-3-(5-methylisoxazol-4-yl)acrylamide]",740 nM
21,"Cc1oncc1/C(O)=C(\C#N)C(=O)Nc1ccc(C(F)(F)F)c(C#N)c1 [Example 78, (Z)-2-cyano-N-(3-cyano-4-(trifluoromethyl)phenyl)-3-hydroxy-3-(5-methylisoxazol-4-yl)acrylamide]",1640 nM
22,"Cc1oncc1/C(O)=C(\C#N)C(=O)Nc1cccc(CO)c1 [Example 143, (Z)-2-Cyano-3-hydroxy-N-[3-(hydroxymethyl)phenyl]-3-(5-methylisoxazol-4-yl)prop-2-enamide]",960 nM
23,"CCCNS(=O)(=O)c1ccc(NC(=O)/C(C#N)=C(\O)c2cnoc2C)cc1 [Example 48, (Z)-2-cyano-3-hydroxy-3-(5-methylisoxazol-4-yl)-N-(4-(N-propylsulfamoyl)phenyl) acrylamide]",100 nM
24,"Cc1oncc1/C(O)=C(\C#N)C(=O)Nc1nc(Cl)c(-c2ccccc2)c(NS(=O)(=O)c2ccc(Cl)cc2)n1 [Example 108, (Z)-N-(4-chloro-6-((4-chlorophenyl)sulfonamido)-5-phenylpyrimidin-2-yl)-2-cyano-3-hydroxy-3-(5-methylisoxazol-4-yl)acrylamide]",5010 nM
25,"Cc1oncc1/C(O)=C(\C#N)C(=O)Nc1ncc(CC2CCCCC2)cn1 [Example 88, (Z)-2-cyano-N-(5-(cyclohexylmethyl)pyrimidin-2-yl)-3-hydroxy-3-(5-methylisoxazol-4-yl)acrylamide]",160 nM

# More lines, in order of falling IC50, values ahead:
row,IC50,Structure (SMILES)
1,2340 nM,"Cc1oncc1/C(O)=C(\C#N)C(=O)Nc1ncc(OCC(F)(F)F)c(-c2ccc(Cl)cc2)n1 [Example 127, (Z)-N-(4-(4-chlorophenyl)-5-(2,2,2-trifluoroethoxy)pyrimidin-2-yl)-2-cyano-3-hydroxy-3-(5-methylisoxazol-4-yl)acrylamide]"
2,2180 nM,"Cc1oncc1/C(O)=C(\C#N)C(=O)Nc1ncc(CCc2ccccc2)c(C(F)(F)F)n1 [Example 131, (Z)-2-cyano-3-hydroxy-3-(5-methylisoxazol-4-yl)-N-(5-phenethyl-4-(trifluoromethyl)pyrimidin-2-yl)acrylamide]"
3,1300 nM,"COc1ccc(NC(=O)/C(C#N)=C(\O)c2cnoc2C)cc1C [Example 31, (Z)-2-cyano-3-hydroxy-N-(4-methoxy-3-methyl-phenyl)-3-(5-methylisoxazol-4-yl)prop-2-enamide]"
4,1160 nM,"Cc1oncc1/C(O)=C(\C#N)C(=O)Nc1ccc(C(=O)c2ccccc2)cc1 [Example 38, (Z)-N-(4-benzoylphenyl)-2-cyano-3-hydroxy-3-(5-methylisoxazol-4-yl)prop-2-enamide]"
5,670 nM,"Cc1oncc1/C(O)=C(\C#N)C(=O)Nc1ccc(S(=O)(=O)N(C)CCN(C)C)cc1 [Example 120, (Z)-2-cyano-N-(4-(N-(2-(dimethylamino)ethyl)-N-methylsulfamoyl)phenyl)-3-hydroxy-3-(5-methylisoxazol-4-yl)acrylamide]"
6,330 nM,"Cc1oncc1/C(O)=C(\C#N)C(=O)Nc1cccc(C(=O)O)c1 [Example 144, 3-[[(Z)-2-Cyano-3-hydroxy-3-(5-methylisoxazol-4-yl)prop-2-enoyl]amino]benzoic acid]"
7,210 nM,"Cc1nnc(NS(=O)(=O)c2ccc(NC(=O)/C(C#N)=C(\O)c3cnoc3C)cc2)s1 [Example 43, (Z)-2-cyano-3-hydroxy-3-(5-methylisoxazol-4-yl)-N-[4-[(5-methyl-1,3,4-thiadiazol-2-yl)sulfamoyl]phenyl]prop-2-enamide]"
8,100 nM,"Cc1oncc1/C(O)=C(\C#N)C(=O)Nc1ccc(S(C)(=O)=O)cn1 [Example 91, (Z)-2-cyano-3-hydroxy-3-(5-methylisoxazol-4-yl)-N-(5-(methylsulfonyl)pyridin-2-yl)acrylamide]"
9,70 nM,"Cc1oncc1/C(O)=C(\C#N)C(=O)Nc1ncc(S(C)(=O)=O)c(-c2cccc(Cl)c2)n1 [Example 136, (Z)—N-(4-(3-chlorophenyl)-5-(methylsulfonyl)pyrimidin-2-yl)-2-cyano-3-hydroxy-3-(5-methylisoxazol-4-yl)acrylamide]"
10,60 nM,"COCCS(=O)(=O)c1cnc(NC(=O)/C(C#N)=C(\O)c2cnoc2C)nc1 [Example 110, (Z)-2-cyano-3-hydroxy-N-(5-((2-methoxyethyl)sulfonyl)pyrimidin-2-yl)-3-(5-methylisoxazol-4-yl)acrylamide]"
11,50 nM,"COCCN(C)S(=O)(=O)c1cnc(NC(=O)/C(C#N)=C(\O)c2cnoc2C)nc1 [Example 117, (Z)-2-Cyano-3-hydroxy-N-(5-(N-(2-methoxyethyl)-N-methylsulfamoyl)pyrimidin-2-yl)-3-(5-methylisoxazol-4-yl)acrylamide]"
12,20 nM,"Cc1oncc1/C(O)=C(\C#N)C(=O)Nc1ncc([S+]([O-])c2ccccc2)cn1 (stereo not shown) [Example 112, (Z)-N-[5-(benzenesulfinyl)pyrimidin-2-yl]-2-cyano-3-hydroxy-3-(5-methylisoxazol-4-yl)prop-2-enamide]"
